The structures appear in SMILES notation. Like-named read-outs stand apart in the source and are kept apart here.

For assay [1], the system named is neomycin-induced hearing loss. The following applies: guinea pigs. The method, then: Guinea pigs weighing 250-300 g were used in all experiments. All interventions (including ABR measurements and intratympanic treatments) are performed under general anesthesia using i.p. injection of a cocktail of Ketamine and Xylazine.
A loudspeaker is placed in each ear and the ABR responses were detected by four surface electrodes. These electrodes are placed two in the mastoid region and one in vertex as positive and fourth electrode was placed on forehead as the ground electrode. Calibrated acoustic signals are obtained to evoke brainstem response. The visual detection threshold is determined by decrement sound pressure in 5 dB steps. The evoked responses are then filtered and averaged with 500 sweeps using a signal processor. All ABR tests are performed bilaterally and baseline Peak Equivalent Sound Pressure Levels (PESPLs) are obtained in terms of decibel (dB). All animals undergo baseline hearing test (ABR) before any kind of treatment in order to rule out previous hearing loss. Control ABR threshold measurements are compared to pretreatment values. Auditory threshold shift is subjected to statistical analysis, statistical significance is determined.
A fine needle is used for myringotomy and drugs are delivered through the same needle. The whole middle ear is filled until the fluid can be seen in the external auditory canal. […] Concentration is calculated using this volume. […]

Assay [2] has as its system dopamine release from the guinea pig cochlea preparation. The method, then: The bulla tympani of a male guinea pig (weighing 150-350 g) was opened. The bony capsule of the cochlea was removed under stereomicroscopic guidance and the stria vascularis was stripped and the cochlea was fractured at the basis of the modiolus. The preparation contained the ganglion spirale, the afferent auditory fibers, the axons and axon terminals of the efferent bundles and both the inner and outer hair cells. All experiments were carried out in a perilimph-like solution, which contained […], 3.5 mM KCl, 1 mM CaCl2, 1 mM MgCl2, 2.75 mM HEPES and 2.25 mM Tris-OH at the temperature of 37° C. and pH 7.4. The osmolality was set by D-glucose and continuously saturated by 100% O2.
The cochleae were incubated with 0.2 μM [3H]dopamine (Amersham, UK, spec. act.: 31.0 Ci/mmol, 6 μCi in 1 ml) for 35 min. Each cochlea was then placed in a microvolume plexi chamber and superfused at 3 ml/min with perilymph-like solution. After 1 hour pre-perfusion the outflow was collected into 3 min-fractions. The released activity was determined by assaying […] of each sample with liquid scintillation spectrometry (Packard Tri-Carb 1900TR). After collecting samples for 57 minutes (19 fractions) each cochlea was transferred from the microchambers to 500 μl of 10% trichloroacetic acid for one day and 100 μl was assayed for tissue radioactivity. […] Electrical field stimulation was applied for one fraction period (3 min, 360 pulses) at 60 V, 2 Hz and 0.5 ms duration at the 3rd and 13th fractions. The pulses were delivered by a Grass S88 stimulator (West Warwick, USA) through platinum electrodes at the top and bottom of the tissue chamber.
To best describe the release of dopamine during one collecting period, the fractional release (FR) of the tritium-outflow was determined as the percentage of total radioactivity present in the tissue at the time of sample collection. The fractional release evoked by field stimulations (S1 and S2) was calculated by the area-under-the-curve, i.e., by subtracting the mean of the basal release from the total fractional release during the electrical stimulation (Halmos G, Gáborján A, Lendvai B, Répássy G, Z Szabó L, Vizi E S, (2000) Veratridine-evoked release of dopamine from guinea pig isolated cochlea. Hear Res 144: 89-96, Halmos G, Lendvai B, Gáborján A, Baranyi M, Z Szabó L, Csokonai Vitéz L, (2002) Simultaneous measurement of glutamate and dopamine release from isolated guinea pig cochlea. Neurochem Int 40: 243-248). The effects of drugs on the field stimulation-evoked [^3H]dopamine release were expressed by the calculated ratio of FRS2 over FRS1, in the presence and in the absence of the drug, respectively. The effect of drugs on the resting outflow of tritium was determined as the ratio of the sum of the two highest consecutive resting FR values in the presence of the drug and before the drug reached the cochleae (FRR2/FRR1). Data are expressed as the means±S.E.M. ANOVA was used for statistical analysis. Tukey post-hoc test was applied to determine the significance of pair wise comparisons.

Assay [3] concerns neomycin-induced hearing loss. The following applies: mice. The method, then:
Left ears were left for vehicle control (NaCl injection). […] Click stimulations to the ear including various frequencies were used to evoke the auditory response in the brainstem that was measured by multiple electrodes placed on the head of the animal.

On to `C#CCN[C@@H]1CCc2ccccc21` [Rasagiline, R(+)-N-propargyl-1-aminoindan], for which the “hearing threshold compared to threshold prior to neomycine treatment” value in assay [1] (Rasagiline intratympanically together with neomycine) was “remains unchanged”; in assay [3] (0.5 mg Rasagiline intratympanically together with neomycine), “remained unchanged”. Moreover, the “protection against ototoxic effect of neomycine” value in assay [1] (intraperitoneally on day of neomycine treatment and next three days) is recorded as “can not prevent”; in assay [3] (intraperitoneally 50 mg/kg daily, day of neomycine treatment and next three days), “could not prevent”. The “field stimulation-evoked dopamine release (FRS2/FRS1)” value in assay [2] (100 μM Rasagiline) and in assay [2] (300 μM Rasagiline) was “increase was significant” in each case. For the same compound, the “evoked dopamine release, all timing groups vs control” value in assay [2] (100 μM, 3-21 min perfusion) is given as “significant enhancement”. Moreover, the “resting release of dopamine (FRR2/FRR1)” value in assay [2] (100 μM, longest duration, 21 minutes prior to stimulation) is “failed to induce significant differences”. In assay [2] (1-300 μM, FIG. 2), the “effect on dopamine release, concentration dependence” value was “concentration dependent”. For the same compound, the “cochlear DA release” value in assay [2] (higher doses (of 1, 10, 100, 300 μM), added 15 min prior to second field stimulation) was “elevate”. In addition, in assay [2] (low concentration (of 1, 10, 100, 300 μM), added 15 min prior to second field stimulation), the cochlear dopamine release result was “did not change”.
